Results published in patent publication US20080009418A1, “Selective Inhibitors” (Alchemia LTD., priority 2004, published 2008).

Key:
[1] = target: T1, Human Melanocortin (MC3) (Homo sapiens, UniProt P41968); assay: Radioligand binding, human melanocortin MC3 membranes, FlashPlate, [125I]-NDP-αMSH; conditions: compound at 10 μM; for A3 radioligand binding inhibition: human melanocortin MC3 membranes
T1 construct: purchased Perkin Elmer Biosignal
Summary of the method: (§1)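 Cloned human receptor membranes were coated onto FlashPlate wells and incubated with radioligand and compound (added from a 0.5 mM DMSO daughter plate) for 1 hour at room temperature in the dark. Scintillation counting gave percent inhibition, with DMSO defining total and reference ligand defining non-specific binding.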

[2] = target: T2, Human melanocortin (MC5) (Homo sapiens, UniProt P33032); assay: Radioligand binding, human melanocortin MC5 membranes, FlashPlate, [125I]-NDP-αMSH; conditions: compound at 10 μM; for A5 radioligand binding inhibition: human melanocortin MC5 membranes
T2 construct: purchased Perkin Elmer Biosignal
T2 sequence (P33032 whole entry): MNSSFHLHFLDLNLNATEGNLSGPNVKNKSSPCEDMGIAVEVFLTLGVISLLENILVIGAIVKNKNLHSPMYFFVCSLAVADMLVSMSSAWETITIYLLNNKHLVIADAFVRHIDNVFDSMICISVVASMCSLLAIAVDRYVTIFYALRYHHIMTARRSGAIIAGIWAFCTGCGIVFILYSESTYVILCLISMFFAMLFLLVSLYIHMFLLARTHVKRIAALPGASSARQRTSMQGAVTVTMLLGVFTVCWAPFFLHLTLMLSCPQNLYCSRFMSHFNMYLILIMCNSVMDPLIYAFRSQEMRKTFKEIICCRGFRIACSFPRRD
Summary of the method: as §1

[3] = target: T3, Human neurokinin (NK1) (Homo sapiens, UniProt P25103); assay: Radioligand binding, human neurokinin NK1 membranes, filtration, [125I]-Substance P; conditions: compound at 10 μM; for A8 radioligand binding inhibition: human neurokinin NK1 membranes
T3 construct: purchased Perkin Elmer Biosignal
T3 sequence (P25103 whole entry): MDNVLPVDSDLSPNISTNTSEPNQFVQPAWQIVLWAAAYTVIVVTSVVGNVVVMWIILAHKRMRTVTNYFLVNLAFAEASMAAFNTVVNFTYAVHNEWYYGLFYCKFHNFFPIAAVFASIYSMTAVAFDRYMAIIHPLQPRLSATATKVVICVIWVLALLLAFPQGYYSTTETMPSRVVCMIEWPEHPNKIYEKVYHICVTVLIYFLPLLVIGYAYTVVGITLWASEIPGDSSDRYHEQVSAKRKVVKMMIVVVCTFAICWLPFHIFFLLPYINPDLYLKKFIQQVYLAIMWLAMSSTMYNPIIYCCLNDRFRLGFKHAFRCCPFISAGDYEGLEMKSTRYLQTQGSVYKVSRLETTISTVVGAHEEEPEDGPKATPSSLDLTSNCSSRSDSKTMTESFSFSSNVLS
Summary of the method: (§2)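 Membranes from cloned human receptors were incubated with compound and radioligand for 1 hour at room temperature. Bound ligand was collected on 0.3% PEI-soaked filters, washed with cold 50 mM Tris-HCl pH 7.4, and counted by scintillation. Percent inhibition was computed against DMSO totals and reference-ligand nonspecific wells.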

[4] = target: T4, Human δ-opioid (DOP) (Homo sapiens, UniProt P41143); assay: Radioligand binding, human δ-opioid (DOP) membranes, FlashPlate, [3H]-Bremazocine; conditions: compound at 10 μM; for A1 radioligand binding inhibition: human δ-opioid (DOP) membranes
T4 construct: purchased Perkin Elmer Biosignal
T4 sequence (P41143 whole entry): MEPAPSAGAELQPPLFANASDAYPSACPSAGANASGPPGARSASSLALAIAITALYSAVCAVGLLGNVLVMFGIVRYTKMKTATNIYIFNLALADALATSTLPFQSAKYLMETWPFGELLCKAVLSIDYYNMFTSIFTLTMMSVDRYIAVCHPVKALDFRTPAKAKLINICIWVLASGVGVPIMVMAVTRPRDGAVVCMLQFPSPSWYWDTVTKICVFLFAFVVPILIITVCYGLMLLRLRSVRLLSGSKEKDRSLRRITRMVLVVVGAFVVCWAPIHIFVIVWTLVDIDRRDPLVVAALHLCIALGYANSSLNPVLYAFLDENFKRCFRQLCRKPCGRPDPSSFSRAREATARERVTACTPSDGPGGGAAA
Summary of the method: as §1

[5] = target: T5, Mouse urotensin (mUR2) (Mus musculus, UniProt Q8VIH9); assay: Radioligand binding, mouse urotensin mUR2 membranes, FlashPlate, [125I]-Urotensin II; conditions: compound at 10 μM; for A11 radioligand binding inhibition: mouse urotensin mUR2 membranes
T5 construct: purchased Perkin Elmer Biosignal
T5 sequence (Q8VIH9 1-385): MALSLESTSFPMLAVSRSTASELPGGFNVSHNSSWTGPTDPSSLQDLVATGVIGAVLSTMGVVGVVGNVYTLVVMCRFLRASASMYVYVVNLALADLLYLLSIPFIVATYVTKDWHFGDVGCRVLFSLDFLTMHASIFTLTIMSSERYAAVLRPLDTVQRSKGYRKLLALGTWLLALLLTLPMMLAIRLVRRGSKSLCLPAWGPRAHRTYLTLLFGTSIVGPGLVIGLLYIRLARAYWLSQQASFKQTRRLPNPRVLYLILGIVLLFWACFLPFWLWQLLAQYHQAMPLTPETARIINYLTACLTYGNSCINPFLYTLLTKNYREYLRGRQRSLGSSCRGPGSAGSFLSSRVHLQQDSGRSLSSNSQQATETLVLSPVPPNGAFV
Summary of the method: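 Cloned mouse urotensin (mUR2) receptor membranes from Perkin Elmer Biosignal were immobilized in FlashPlate microplates using a proprietary coating. Each well got 19.5 μl buffer, then 0.5 μl of DMSO, reference ligand, or compound. Adding 5 μl of [125I]-Urotensin II, diluted to 5× final concentration in binding buffer, started binding. Plates were sealed with TopSeal-A and incubated 1 hour at room temperature in the dark. Wells were counted for 30 seconds each on a TopCount after a 60-second delay, and percentage inhibition was calculated.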

[6] = target: T6, Human μ-opioid (MOP) (Homo sapiens, UniProt P35372); assay: Radioligand binding, human μ-opioid (MOP) membranes, FlashPlate, [3H]-Naloxone; conditions: compound at 10 μM; for A7 radioligand binding inhibition: human μ-opioid (MOP) membranes
T6 construct: purchased Perkin Elmer Biosignal
T6 sequence (P35372 whole entry): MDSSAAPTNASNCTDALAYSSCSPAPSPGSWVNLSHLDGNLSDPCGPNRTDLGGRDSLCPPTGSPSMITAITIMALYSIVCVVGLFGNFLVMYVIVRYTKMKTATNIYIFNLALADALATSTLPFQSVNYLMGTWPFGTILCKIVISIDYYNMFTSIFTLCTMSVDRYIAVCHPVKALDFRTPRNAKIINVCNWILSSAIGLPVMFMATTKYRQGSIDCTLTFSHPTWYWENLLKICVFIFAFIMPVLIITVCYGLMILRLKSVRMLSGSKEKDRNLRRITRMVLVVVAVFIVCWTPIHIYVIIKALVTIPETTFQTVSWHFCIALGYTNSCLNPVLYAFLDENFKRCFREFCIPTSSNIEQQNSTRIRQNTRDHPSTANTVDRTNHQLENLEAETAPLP
Summary of the method: as §1

[7] = target: T7, Human neuropeptide Y (NPY-Y1) (Homo sapiens, UniProt P25929); assay: Radioligand binding, human neuropeptide Y NPY-Y1 membranes, FlashPlate, [125I]-PYY; conditions: compound at 10 μM; for A9 radioligand binding inhibition: human NPY-Y1 membranes
T7 construct: purchased Perkin Elmer Biosignal
T7 sequence (P25929 1-384): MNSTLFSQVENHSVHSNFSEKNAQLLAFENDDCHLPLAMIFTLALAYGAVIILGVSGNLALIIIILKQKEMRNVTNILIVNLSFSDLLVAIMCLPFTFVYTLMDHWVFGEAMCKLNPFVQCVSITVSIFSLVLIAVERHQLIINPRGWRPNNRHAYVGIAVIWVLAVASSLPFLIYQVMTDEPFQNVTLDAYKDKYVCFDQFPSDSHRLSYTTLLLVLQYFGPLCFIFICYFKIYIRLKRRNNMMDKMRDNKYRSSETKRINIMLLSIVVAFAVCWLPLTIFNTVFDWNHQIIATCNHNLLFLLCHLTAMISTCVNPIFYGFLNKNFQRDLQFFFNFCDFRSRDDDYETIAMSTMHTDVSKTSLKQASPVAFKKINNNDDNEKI
Summary of the method: as §1

[8] = target: T8, Human Melanocortin (MC4) (Homo sapiens, UniProt P32245); assay: Radioligand binding, human melanocortin MC4 membranes, FlashPlate, [125I]-NDP-αMSH; conditions: compound at 10 μM; for A4 radioligand binding inhibition: human melanocortin MC4 membranes
T8 construct: purchased Perkin Elmer Biosignal
T8 sequence (P32245 whole entry): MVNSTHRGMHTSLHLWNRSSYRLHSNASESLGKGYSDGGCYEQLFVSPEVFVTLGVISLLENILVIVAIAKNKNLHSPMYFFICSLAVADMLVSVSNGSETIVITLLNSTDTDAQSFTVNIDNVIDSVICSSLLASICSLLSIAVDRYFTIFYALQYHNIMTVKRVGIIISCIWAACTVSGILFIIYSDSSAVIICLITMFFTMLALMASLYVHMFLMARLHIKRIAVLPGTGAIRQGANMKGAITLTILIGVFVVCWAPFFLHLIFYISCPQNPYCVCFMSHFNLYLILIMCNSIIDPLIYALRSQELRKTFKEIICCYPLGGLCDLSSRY
Summary of the method: as §1

[9] = target: T9, Human κ-Opioid (KOP) (Homo sapiens, UniProt P41145); assay: Radioligand binding, human κ-opioid (KOP) membranes, filtration, [3H]-Diprenorphine; conditions: compound at 10 μM; for A2 radioligand binding inhibition: human κ-opioid (KOP) membranes
T9 construct: purchased Perkin Elmer Biosignal
T9 sequence (P41145 whole entry): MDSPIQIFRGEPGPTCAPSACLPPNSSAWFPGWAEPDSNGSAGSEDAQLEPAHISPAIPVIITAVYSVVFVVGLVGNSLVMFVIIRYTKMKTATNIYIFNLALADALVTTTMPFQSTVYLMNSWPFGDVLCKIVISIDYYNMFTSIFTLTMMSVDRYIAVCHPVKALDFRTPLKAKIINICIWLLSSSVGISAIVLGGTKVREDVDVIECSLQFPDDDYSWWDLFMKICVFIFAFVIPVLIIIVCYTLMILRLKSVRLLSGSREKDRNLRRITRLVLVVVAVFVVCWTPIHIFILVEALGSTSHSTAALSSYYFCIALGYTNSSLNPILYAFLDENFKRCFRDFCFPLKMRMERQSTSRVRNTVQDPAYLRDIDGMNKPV
Summary of the method: as §2

[10] = target: T10, Human melanin-concentrating hormone (MCH1) (Homo sapiens, UniProt Q99705); assay: Radioligand binding, human melanin-concentrating hormone MCH1 membranes, FlashPlate, [125I]-S36057; conditions: compound at 10 μM; for A6 radioligand binding inhibition: human MCH1 membranes
T10 construct: purchased Perkin Elmer Biosignal
T10 sequence (Q99705 whole entry): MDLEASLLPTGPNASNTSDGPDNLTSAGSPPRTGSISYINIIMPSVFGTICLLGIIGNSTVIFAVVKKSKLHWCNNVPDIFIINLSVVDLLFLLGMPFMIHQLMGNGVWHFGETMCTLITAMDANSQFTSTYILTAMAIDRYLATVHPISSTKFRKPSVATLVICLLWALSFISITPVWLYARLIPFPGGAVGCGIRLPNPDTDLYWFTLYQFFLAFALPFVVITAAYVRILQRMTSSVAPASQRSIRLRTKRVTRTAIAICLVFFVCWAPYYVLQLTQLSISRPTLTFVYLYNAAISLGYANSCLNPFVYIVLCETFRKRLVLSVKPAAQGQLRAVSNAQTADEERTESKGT
Summary of the method: as §1

[11] = target: T11, Human opioid (ORL1) (Homo sapiens, UniProt P41146); assay: Radioligand binding, human opioid ORL1 membranes, FlashPlate, [125I]-Nociceptin; conditions: compound at 10 μM; for A10 radioligand binding inhibition: human ORL1 membranes
T11 construct: purchased Perkin Elmer Biosignal
T11 sequence (P41146 whole entry): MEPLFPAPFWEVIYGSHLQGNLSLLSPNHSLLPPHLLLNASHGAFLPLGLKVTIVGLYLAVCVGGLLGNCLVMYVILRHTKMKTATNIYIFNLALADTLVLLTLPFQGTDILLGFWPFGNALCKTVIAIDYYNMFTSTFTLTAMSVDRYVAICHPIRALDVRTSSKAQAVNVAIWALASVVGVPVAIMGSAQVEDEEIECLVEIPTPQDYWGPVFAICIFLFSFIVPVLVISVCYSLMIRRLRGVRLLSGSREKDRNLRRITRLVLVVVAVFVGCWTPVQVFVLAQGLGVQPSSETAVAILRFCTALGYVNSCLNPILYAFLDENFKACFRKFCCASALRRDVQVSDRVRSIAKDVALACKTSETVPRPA
Summary of the method: as §1

T1 sequence (P41968 whole entry): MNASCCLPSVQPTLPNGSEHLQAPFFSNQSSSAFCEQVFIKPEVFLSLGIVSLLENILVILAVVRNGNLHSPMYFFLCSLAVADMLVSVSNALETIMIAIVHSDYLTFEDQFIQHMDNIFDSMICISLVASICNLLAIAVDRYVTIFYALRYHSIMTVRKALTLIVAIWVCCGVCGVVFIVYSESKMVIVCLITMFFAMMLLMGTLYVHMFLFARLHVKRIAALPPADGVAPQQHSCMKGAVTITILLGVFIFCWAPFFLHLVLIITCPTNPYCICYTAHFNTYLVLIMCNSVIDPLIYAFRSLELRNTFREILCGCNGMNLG

Structure (SMILES): CSC1OC(COCc2ccc3ccccc3c2)C(O)C(OCc2ccccc2)C1NC(=O)CCCN (stereo not shown) [compound 263]
- A3: inhibition of radioligand binding ([1]; [125I]-NDP-αMSH, FlashPlate): − (“−” indicates less than 50% inhibition at 10 μM)
- A5: inhibition of radioligand binding ([2]; [125I]-NDP-αMSH, FlashPlate): − (“−” indicates less than 50% inhibition at 10 μM)
- A8: inhibition of radioligand binding ([3]; [125I]-Substance P, filtration): + (“+” indicates greater than 50% inhibition at 10 μM)
- A1: inhibition of radioligand binding ([4]; [3H]-Bremazocine, FlashPlate): − (“−” indicates less than 50% inhibition at 10 μM)
- A11: inhibition of radioligand binding ([5]; [125I]-Urotensin II, FlashPlate): − (“−” indicates less than 50% inhibition at 10 μM)
- A7: inhibition of radioligand binding ([6]; [3H]-Naloxone, FlashPlate): − (“−” indicates less than 50% inhibition at 10 μM)
- A9: inhibition of radioligand binding ([7]; [125I]-PYY, FlashPlate): − (“−” indicates less than 50% inhibition at 10 μM)
- A4: inhibition of radioligand binding ([8]; [125I]-NDP-αMSH, FlashPlate): − (“−” indicates less than 50% inhibition at 10 μM)
- A2: inhibition of radioligand binding ([9]; [3H]-Diprenorphine, filtration): − (“−” indicates less than 50% inhibition at 10 μM)
- A6: inhibition of radioligand binding ([10]; [125I]-S36057, FlashPlate): − (“−” indicates less than 50% inhibition at 10 μM)
- A10: inhibition of radioligand binding ([11]; [125I]-Nociceptin, FlashPlate): − (“−” indicates less than 50% inhibition at 10 μM)

Structure (SMILES): COC[C@H]1OC(OCc2ccc3ccccc3c2)[C@H](NC(=O)CCCN)[C@@H](OCc2ccccc2)[C@@H]1O (stereo partly shown) [compound 20]
- A3 radioligand binding inhibition [1]: − (“−” indicates less than 50% inhibition at 10 μM)
- A5 radioligand binding inhibition [2]: − (“−” indicates less than 50% inhibition at 10 μM)
- A8 radioligand binding inhibition [3]: + (“+” indicates greater than 50% inhibition at 10 μM)
- A1 radioligand binding inhibition [4]: − (“−” indicates less than 50% inhibition at 10 μM)
- A11 radioligand binding inhibition [5]: − (“−” indicates less than 50% inhibition at 10 μM)
- A7 radioligand binding inhibition [6]: − (“−” indicates less than 50% inhibition at 10 μM)
- A9 radioligand binding inhibition [7]: − (“−” indicates less than 50% inhibition at 10 μM)
- A4 radioligand binding inhibition [8]: − (“−” indicates less than 50% inhibition at 10 μM)
- A2 radioligand binding inhibition [9]: − (“−” indicates less than 50% inhibition at 10 μM)
- A6 radioligand binding inhibition [10]: − (“−” indicates less than 50% inhibition at 10 μM)
- A10 radioligand binding inhibition [11]: − (“−” indicates less than 50% inhibition at 10 μM)

Structure (SMILES): N=C(N)NCCC(=O)N[C@H]1C(OCc2ccc(Cl)cc2)O[C@H](COCc2ccccc2)[C@@H](O)[C@@H]1OCc1ccc(Cl)cc1 (stereo partly shown) [compound 524]
- A3: inhibition of radioligand binding, human melanocortin (MC3) ([1]; [125I]-NDP-αMSH, 10 µM): − (“−” indicates less than 50% inhibition at 10 μM)
- A5: inhibition of radioligand binding, human melanocortin (MC5) ([2]; [125I]-NDP-αMSH): + (“+” indicates greater than 50% inhibition at 10 μM)
- A8: inhibition of radioligand binding, human neurokinin (NK1) ([3]; [125I]-Substance P): + (“+” indicates greater than 50% inhibition at 10 μM)
- A1: inhibition of radioligand binding, human δ-opioid (DOP) ([4]; [3H]-Bremazocine): − (“−” indicates less than 50% inhibition at 10 μM)
- A11: inhibition of radioligand binding, mouse urotensin (mUR2) ([5]; [125I]-Urotensin II): − (“−” indicates less than 50% inhibition at 10 μM)
- A7: inhibition of radioligand binding, human μ-opioid (MOP) ([6]; [3H]-Naloxone): − (“−” indicates less than 50% inhibition at 10 μM)
- A9: inhibition of radioligand binding, human neuropeptide Y (NPY-Y1) ([7]; [125I]-PYY): − (“−” indicates less than 50% inhibition at 10 μM)
- A4: inhibition of radioligand binding, human melanocortin (MC4) ([8]; [125I]-NDP-αMSH, 10 µM): − (“−” indicates less than 50% inhibition at 10 μM)
- A2: inhibition of radioligand binding, human κ-opioid (KOP) ([9]; [3H]-Diprenorphine, 10 µM): − (“−” indicates less than 50% inhibition at 10 μM)
- A6: inhibition of radioligand binding, human melanin-concentrating hormone (MCH1) ([10]; [125I]-S36057): + (“+” indicates greater than 50% inhibition at 10 μM)
- A10: inhibition of radioligand binding, human opioid (ORL1) ([11]; [125I]-Nociceptin): − (“−” indicates less than 50% inhibition at 10 μM)

Structure (SMILES): CO[C@H]1[C@H](O)[C@@H](COCc2ccc(-c3ccccc3)cc2)OC(OCc2ccccc2)[C@@H]1NC(=O)CCCNC(=N)N (stereo partly shown) [compound 85]
- A3 radioligand binding inhibition [1]: + (“+” indicates greater than 50% inhibition at 10 μM)
- A5 radioligand binding inhibition [2]: + (“+” indicates greater than 50% inhibition at 10 μM)
- A8 radioligand binding inhibition [3]: + (“+” indicates greater than 50% inhibition at 10 μM)
- A1 radioligand binding inhibition [4]: − (“−” indicates less than 50% inhibition at 10 μM)
- A11 radioligand binding inhibition [5]: − (“−” indicates less than 50% inhibition at 10 μM)
- A7 radioligand binding inhibition [6]: + (“+” indicates greater than 50% inhibition at 10 μM)
- A9 radioligand binding inhibition [7]: − (“−” indicates less than 50% inhibition at 10 μM)
- A4 radioligand binding inhibition [8]: + (“+” indicates greater than 50% inhibition at 10 μM)
- A2 radioligand binding inhibition [9]: − (“−” indicates less than 50% inhibition at 10 μM)
- A6 radioligand binding inhibition [10]: + (“+” indicates greater than 50% inhibition at 10 μM)
- A10 radioligand binding inhibition [11]: + (“+” indicates greater than 50% inhibition at 10 μM)

Structure (SMILES): COCC1OC(OCc2ccccc2)C(NC(=O)CCNC(=N)N)C(OCc2ccc(Cl)cc2)C1O (stereo not shown) [compound 179]
- A3 radioligand binding, percentage inhibition ([1]; [125I]-NDP-αMSH): + (“+” indicates greater than 50% inhibition at 10 μM)
- A5 radioligand binding, percentage inhibition ([2]; [125I]-NDP-αMSH): + (“+” indicates greater than 50% inhibition at 10 μM)
- A8 radioligand binding, percentage inhibition ([3]; [125I]-Substance P): + (“+” indicates greater than 50% inhibition at 10 μM)
- A1 radioligand binding, percentage inhibition ([4]; [3H]-Bremazocine): + (“+” indicates greater than 50% inhibition at 10 μM)
- A11 radioligand binding, percentage inhibition ([5]; [125I]-Urotensin II): − (“−” indicates less than 50% inhibition at 10 μM)
- A7 radioligand binding, percentage inhibition ([6]; [3H]-Naloxone): − (“−” indicates less than 50% inhibition at 10 μM)
- A9 radioligand binding, percentage inhibition ([7]; [125I]-PYY): − (“−” indicates less than 50% inhibition at 10 μM)
- A4 radioligand binding, percentage inhibition ([8]; [125I]-NDP-αMSH): + (“+” indicates greater than 50% inhibition at 10 μM)
- A2 radioligand binding, percentage inhibition ([9]; [3H]-Diprenorphine): − (“−” indicates less than 50% inhibition at 10 μM)
- A6 radioligand binding, percentage inhibition ([10]; [125I]-S36057): + (“+” indicates greater than 50% inhibition at 10 μM)
- A10 radioligand binding, percentage inhibition ([11]; [125I]-Nociceptin): − (“−” indicates less than 50% inhibition at 10 μM)
